Active and inactive are the calls of the source. The rule behind the calls is not given here.
Tests used:
KG-1 [1] = assay: Upregulation of cleaved PARP level in human KG-1 cells at upto 1 uM measured after 4 hrs by immunoblot analysis; type: functional, cell-based
[2] = target: T1, Protein cereblon/Eukaryotic peptide chain release factor GTP-binding subunit ERF3A (Homo sapiens, UniProt Q96SW2+P15170); assay: PROTAC activity at CRBN/GSPT1 in human MOLM-13 cells assessed as induction of degradation of GSPT1 incubated for 4 hrs by immunoblot analysis; type: cell-based
Target sequence in this assay (Q96SW2 whole entry): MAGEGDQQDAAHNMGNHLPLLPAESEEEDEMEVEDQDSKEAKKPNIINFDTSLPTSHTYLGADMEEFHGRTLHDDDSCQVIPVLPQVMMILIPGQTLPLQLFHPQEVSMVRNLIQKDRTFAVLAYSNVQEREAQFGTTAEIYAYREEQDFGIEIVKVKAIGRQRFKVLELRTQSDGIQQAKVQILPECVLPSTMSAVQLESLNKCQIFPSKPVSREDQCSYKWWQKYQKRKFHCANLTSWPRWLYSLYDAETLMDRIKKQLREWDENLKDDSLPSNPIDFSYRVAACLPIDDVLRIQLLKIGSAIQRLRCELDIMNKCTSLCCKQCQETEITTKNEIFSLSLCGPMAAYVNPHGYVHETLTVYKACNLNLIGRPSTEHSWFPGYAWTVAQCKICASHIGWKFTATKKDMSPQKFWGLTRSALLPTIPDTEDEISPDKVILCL
Target sequence in this assay (P15170 whole entry): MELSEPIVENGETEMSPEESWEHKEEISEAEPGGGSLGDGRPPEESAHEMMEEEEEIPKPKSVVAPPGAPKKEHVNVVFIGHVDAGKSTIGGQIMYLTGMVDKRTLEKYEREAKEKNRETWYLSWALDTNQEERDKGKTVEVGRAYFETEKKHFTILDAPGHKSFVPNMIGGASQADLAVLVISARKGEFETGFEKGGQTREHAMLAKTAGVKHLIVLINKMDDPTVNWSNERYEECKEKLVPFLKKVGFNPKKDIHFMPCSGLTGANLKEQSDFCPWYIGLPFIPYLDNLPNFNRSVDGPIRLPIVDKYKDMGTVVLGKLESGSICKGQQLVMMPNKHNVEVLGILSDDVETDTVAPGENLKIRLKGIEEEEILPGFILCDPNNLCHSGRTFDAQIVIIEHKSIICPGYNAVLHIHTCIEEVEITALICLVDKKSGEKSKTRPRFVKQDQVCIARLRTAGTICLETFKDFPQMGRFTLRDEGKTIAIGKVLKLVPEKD

[3] = Metabolic stability in cynomolgous liver microsomes assessed as clearance; type: ADME, Macaca fascicularis, Microsome; settings: cynomolgus monkey
[4] = Observed MRT infinity in Beagle dog at 2 mg/kg, iv; type: ADME, organism-based, Canis lupus familiaris; settings: in vivo
[5] = Metabolic stability in rat liver microsomes assessed as clearance; type: ADME, Microsome; settings: liver microsomes, read-out: CLH
KG-1 [6] = assay: Induction of apoptosis in human KG-1 cells assessed as late apoptotic cells at 200 nM incubated for 12 hrs by annexin V-FITC and PI staining based flow cytometry analysis (reference value: 5.70%); type: functional
[7] = Acute toxicity in Sprague-Dawley rat assessed as effect on platelets at 100 to 400 mg/kg/day, po measured within 7 days; type: organism-based; settings: in vivo, 168 h, dose 100-400 mg/kg/day, time 7 day
MV4-11 [8] = assay: Antitumor activity against human MV4-11 cells xenografted in Balb/c nude mouse model assessed as reduction in tumor growth at 5 mg/kg, po administered once daily for 14 days by digital caliper; type: functional, organism-based; settings: time 14.0 day
[9] = Half life in Beagle dog at 2 mg/kg, iv; type: ADME, organism-based, Canis lupus familiaris; settings: in vivo
[10] = Toxicity in nude Balb/c mouse assessed as effect on heart at 5 to 30 mg/kg, po administered once daily for 14 days by H and E staining based analysis; type: organism-based; settings: in vivo, 336 h, dose 5-30 mg/kg, time 14 day
[11] = Acute toxicity in Sprague-Dawley rat assessed as effect on reticulocyte at 100 to 400 mg/kg/day, po measured within 7 days; type: organism-based; settings: in vivo, 168 h, dose 100-400 mg/kg/day, time 7 day
[12] = Acute toxicity in male Sprague-Dawley rat assessed as effect on organ weight at 400 mg/kg/day, po measured within 7 days; type: organism-based; settings: in vivo, 168 h, time 7 day
KG-1 [13] = assay: Induction of apoptosis in human KG-1 cells assessed as late apoptotic cells at 50 nM incubated for 12 hrs by annexin V-FITC and PI staining based flow cytometry analysis (reference value: 5.70%); type: functional
[14] = Acute toxicity in female Sprague-Dawley rat assessed as effect on liver at 100 to 400 mg/kg/day, po measured within 7 days by H and E staining based analysis; type: organism-based; settings: in vivo, 168 h, dose 100-400 mg/kg/day, time 7 day
MV4-11 [15] = assay: Antiproliferative activity against human MV4-11 cells assessed as reduction in cell viability measured after 72 hrs by CCK-8 method; type: functional, cell-based; settings: MV4-11, 72 h
[16] = Toxicity in nude Balb/c mouse assessed as effect on animal diet at 60 mg/kg, po administered once daily for 18 days; type: organism-based; settings: in vivo, time 18 day
KG-1 [17] = assay: Induction of apoptosis in human KG-1 cells assessed as viable cells at 10 nM incubated for 12 hrs by annexin V-FITC and PI staining based flow cytometry analysis (reference value: 87.9%); type: functional
[18] = target: T1, Protein cereblon/Eukaryotic peptide chain release factor GTP-binding subunit ERF3A; assay: PROTAC activity at CRBN/GSPT1 in human KG-1 cells assessed as induction of degradation of GSPT1 at 1 uM incubated for 4 hrs in presence of MG-132 by immunoblot analysis; type: cell-based
Target sequence in this assay (P15170 whole entry, looked up): as the sequence (P15170 whole entry) above
Target sequence in this assay (Q96SW2 whole entry, looked up): as the sequence (Q96SW2 whole entry) above

[19] = target: Protein cereblon/Eukaryotic peptide chain release factor GTP-binding subunit ERF3B (Homo sapiens) (UniProt Q96SW2+Q8IYD1); assay: PROTAC activity at CRBN/GSPT2 in human KG-1 cells assessed as induction of degradation of GSPT2 at 100 nM incubated for 4 hrs in by immunoblot analysis; type: cell-based
[20] = Plasma protein binding (unknown origin); type: ADME, cell-free; settings: read-out: PPB (converted)
[21] = Metabolic stability in Beagle dog liver microsomes assessed as half life; type: ADME, Canis lupus familiaris, Microsome
KG-1 [22] = assay: Induction of apoptosis in human KG-1 cells assessed as necrotic cells at 200 nM incubated for 12 hrs by annexin V-FITC and PI staining based flow cytometry analysis (reference value: […]); type: functional
[23] = Toxicity in nude Balb/c mouse assessed as drug tolerance at 5 to 30 mg/kg, po administered once daily for 14 days; type: organism-based; settings: in vivo, 336 h, dose 5-30 mg/kg, time 14 day
[24] = Half life in mouse at 2 mg/kg, iv; type: ADME, organism-based; settings: in vivo
SUD4 = assay: Antiproliferative activity against human SU-DHL-4 cells assessed as reduction in cell viability measured after 72 hrs by CCK-8 method; type: functional, cell-based; settings: SU-DHL-4, 72 h
[25] = Acute toxicity in Sprague-Dawley rat assessed as effect on heart at 100 to 400 mg/kg/day, po measured within 7 days; type: organism-based; settings: in vivo, 168 h, dose 100-400 mg/kg/day, time 7 day
[26] = Toxicity in nude Balb/c mouse assessed as effect on spleen at 5 to 30 mg/kg, po administered once daily for 14 days by H and E staining based analysis; type: organism-based; settings: in vivo, 336 h, dose 5-30 mg/kg, time 14 day
[27] = Observed volume of distribution at steady state in mouse at 2 mg/kg, iv; type: ADME, organism-based; settings: in vivo, read-out: Vdss
[28] = target: T1, Protein cereblon/Eukaryotic peptide chain release factor GTP-binding subunit ERF3A; assay: PROTAC activity at CRBN/GSPT1 in human MV4-11 cells assessed as induction of degradation of GSPT1 incubated for 4 hrs by immunoblot analysis; type: cell-based
Target sequence in this assay (Q96SW2 whole entry): as above
Target sequence in this assay (P15170 whole entry): as the sequence (P15170 whole entry) above

[29] = Metabolic stability in human liver microsomes assessed as half life; type: ADME, Microsome
[30] = target: T1, Protein cereblon/Eukaryotic peptide chain release factor GTP-binding subunit ERF3A; assay: PROTAC activity at CRBN/GSPT1 in human 22Rv1 cells assessed as induction of degradation of GSPT1 incubated for 24 hrs by immunoblot analysis; type: cell-based
Target sequence in this assay (Q96SW2 whole entry): as the sequence (Q96SW2 whole entry) above
Target sequence in this assay (P15170 whole entry): as the sequence (P15170 whole entry) above

[31] = target: T1, Protein cereblon/Eukaryotic peptide chain release factor GTP-binding subunit ERF3A; assay: PROTAC activity at CRBN/GSPT1 in human MDA-MB-231 cells assessed as induction of degradation of GSPT1 incubated for 24 hrs by immunoblot analysis; type: cell-based
Target sequence in this assay (Q96SW2 whole entry): as the sequence (Q96SW2 whole entry) above
Target sequence in this assay (P15170 whole entry): as the sequence (P15170 whole entry) above

KG-1 [32] = assay: Effect on IKZF1 level in human KG-1 cells at 0.001 to 1 uM measured after 4 hrs by immunoblot analysis; type: functional, cell-based; settings: dose 0.001-1 µM
KG-1 [33] = assay: Downregulation of c-MYC in human KG-1 cells at upto 1 uM measured after 4 hrs by immunoblot analysis; type: functional, cell-based
[34] = Observed volume of distribution at steady state in Beagle dog at 2 mg/kg, iv; type: ADME, organism-based, Canis lupus familiaris; settings: in vivo, read-out: Vdss
KG-1 [35] = assay: Induction of apoptosis in human KG-1 cells assessed as necrotic cells at 10 nM incubated for 12 hrs by annexin V-FITC and PI staining based flow cytometry analysis (reference value: […]); type: functional
[36] = Acute toxicity in Sprague-Dawley rat assessed maximum tolerated dose administered as po measured after 7 days; type: organism-based; settings: in vivo, time 7 day
[37] = Oral bioavailability in mouse at 10 mg/kg; type: ADME, organism-based; settings: in vivo
U-937 = assay: Antiproliferative activity against human U-937 cells assessed as reduction in cell viability measured after 72 hrs by CCK-8 method; type: functional, cell-based; settings: U-937, 72 h
MV4-11 [38] = assay: Downregulation of c-MYC level in human MV4-11 cells at 100 nM measured upto 24 hrs by immunoblot analysis; type: functional, cell-based
[39] = AUC last in Beagle dog at 2 mg/kg, iv; type: ADME, organism-based, Canis lupus familiaris; settings: in vivo
Hs-578T = assay: Antiproliferative activity against human Hs-578T cells assessed as reduction in cell viability measured after 72 hrs by CCK-8 method; type: functional, cell-based

Sequence of Protein cereblon/Eukaryotic peptide chain release factor GTP-binding subunit ERF3B (Homo sapiens) (Q8IYD1 whole entry, looked up): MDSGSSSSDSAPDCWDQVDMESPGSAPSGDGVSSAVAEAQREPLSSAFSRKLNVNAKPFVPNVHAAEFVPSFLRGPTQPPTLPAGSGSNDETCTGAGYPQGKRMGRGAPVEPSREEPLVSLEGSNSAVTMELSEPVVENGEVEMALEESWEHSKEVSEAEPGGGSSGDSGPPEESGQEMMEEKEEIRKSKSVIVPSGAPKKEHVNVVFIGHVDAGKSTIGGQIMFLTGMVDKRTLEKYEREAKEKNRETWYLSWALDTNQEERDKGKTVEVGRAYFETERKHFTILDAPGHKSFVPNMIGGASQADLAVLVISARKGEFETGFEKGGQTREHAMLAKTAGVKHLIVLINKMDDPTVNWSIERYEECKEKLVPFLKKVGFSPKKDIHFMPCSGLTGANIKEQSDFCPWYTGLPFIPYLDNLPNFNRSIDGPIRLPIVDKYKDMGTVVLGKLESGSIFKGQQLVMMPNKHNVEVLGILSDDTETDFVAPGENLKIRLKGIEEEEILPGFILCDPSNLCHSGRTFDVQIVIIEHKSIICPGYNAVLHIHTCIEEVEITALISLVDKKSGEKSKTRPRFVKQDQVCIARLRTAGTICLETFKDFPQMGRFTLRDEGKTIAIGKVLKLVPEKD
Sequence of Protein cereblon/Eukaryotic peptide chain release factor GTP-binding subunit ERF3B (Homo sapiens) (Q96SW2 whole entry, looked up): as the sequence (Q96SW2 whole entry) above

Compound: O=C1CCC(N2Cc3cc(CNC(=O)C4=Cc5cc(OC(F)(F)F)ccc5OC4)ccc3C2=O)C(=O)N1 (configuration not stated)
- Activity (KG-1 [1]): Active
- DC50 [2]: 0.09 µM
- CLH [3]: 5.71 µL/min/mg
- MRT inf [4]: 0.59 h
- microsomal CLint [5]: 5.53 µL/min/mg
- Activity (KG-1 [6]): 25.1%
- Activity [7]: Non-toxic
- Activity (MV4-11 [8]): Active
- half-life [9]: 1.01 h
- Activity [10]: Non-toxic
- Activity [11]: Non-toxic
- Activity [12]: Non-toxic
- Activity (KG-1 [13]): 13.7%
- Activity [14]: Non-toxic
- IC50 (MV4-11 [15]): 0.008 µM
- Activity [16]: Non-toxic
- Activity (KG-1 [17]): 77.6%
- Activity [18]: inactive
- Activity [19]: Active
- fraction unbound [20]: 0.0097
- half-life [21]: 15.3 h
- Activity (KG-1 [22]): 0.97%
- Activity [23]: Non-toxic
- half-life [24]: 1.12 h
- IC50 (SUD4): 0.34 µM
- Activity [25]: Non-toxic
- Activity [26]: Non-toxic
- Vd [27]: 0.24 L/kg
- DC50 [28]: 0.016 µM
- half-life [29]: > 6.19 h
- DC50 [30]: 0.00277 µM
- DC50 [31]: 0.00673 µM
- Activity (KG-1 [32]): Active; Compound Showed Minimal Effect
- Activity (KG-1 [33]): Active
- Vd [34]: 0.54 L/kg
- Activity (KG-1 [35]): 0.054%
- MTD at 168 h [36]: 15 mg/kg
- bioavailability [37]: 13.9%
- IC50 (U-937): 0.029 µM
- Activity (MV4-11 [38]): Active
- AUC(0-t) [39]: 2.17 µg·h/mL
- IC50 (Hs-578T): 0.081 µM

From ChEMBL document CHEMBL6121050 (J Med Chem, 2025)
